Key:
Type in all cases: functional, cell-based
HepG2 = test: Cytotoxicity against human HepG2 cells assessed as reduction in cell viability after 48 hrs by MTT assay; conditions: HepG2, 48 h
SW-620 = test: Cytotoxicity against human SW620 cells assessed as reduction in cell viability after 48 hrs by MTT assay; conditions: SW-620, 48 h
NCI-H460 = test: Cytotoxicity against human NCI-H460 cells assessed as reduction in cell viability after 48 hrs by MTT assay; conditions: NCI-H460, 48 h
KB = test: Cytotoxicity against human KB cells assessed as reduction in cell viability
L1210 = test: Cytotoxicity against mouse L1210 cells assessed as reduction in cell viability

SMILES | IC50 (HepG2) | IC50 (SW-620) | IC50 (NCI-H460) | IC50 (KB) | IC50 (L1210)
CCC(=O)OC[C@]12CCCC(C)(C)[C@@H]1CC[C@@]1(C)[C@@H]3COC(=O)[C@@H]3C[C@H](OC(C)=O)[C@@H]12 | > 30 µM | > 30 µM | > 30 µM |  | 
CCC(=O)OC[C@]12CCCC(C)(C)[C@@H]1CC[C@@]1(C)[C@@H]3COC(=O)[C@@H]3[C@@H](OC(C)=O)C[C@@H]12 | > 30 µM | > 30 µM | > 30 µM |  | 
CC(=O)OC[C@]12CCCC(C)(C)[C@@H]1CC[C@@]1(C)[C@@H]3COC(=O)[C@@H]3[C@@H](OC(C)=O)C[C@@H]12 | > 30 µM | > 30 µM | > 30 µM |  | 
CCC(=O)OC[C@]12CCCC(C)(C)[C@@H]1C[C@@H](OC(=O)CC(C)C)[C@@]1(C)[C@@H]3COC(=O)[C@@H]3C[C@H](O)[C@H]21 | > 30 µM | > 30 µM | > 30 µM |  | 
CCC(=O)O[C@@H]1C[C@H]2C(=O)OC[C@H]2[C@@]2(C)[C@H]1[C@@]1(C)CCCC(C)(C)[C@@H]1C[C@H]2OC(=O)CC(C)C | > 30 µM | > 30 µM | > 30 µM |  | 
CC(=O)O[C@@H]1C[C@H]2C(C)(C)CCC[C@]2(C)[C@H]2CC[C@H]3C(=O)OC[C@H]3[C@@]21C |  |  |  | 44.1 µM | 6.1 µM
CC(=O)OC[C@]12CCCC(C)(C)[C@@H]1CC[C@@]1(C)[C@@H]3COC(=O)[C@@H]3C[C@H](OC(C)=O)[C@@H]12 | > 30 µM | > 30 µM | > 30 µM |  | 
CC1(C)CCC[C@]2(C)[C@H]3CC[C@H]4C(=O)OC[C@H]4[C@]3(C)CC[C@@H]12 |  |  |  | 30.2 µM | 16.4 µM

Reference: ChEMBL document CHEMBL4033603, “Spongian-16-one Diterpenes and Their Anatomical Distribution in the Australian Nudibranch Goniobranchus collingwoodi” (J Nat Prod, 2017)
